Source: ChEMBL document CHEMBL3860050, “Triterpenoids from Momordica balsamina: Reversal of ABCB1-mediated multidrug resistance” (Bioorg Med Chem, 2016)

Legend:
[1] = target: T1, ATP-dependent translocase ABCB1 (Homo sapiens, UniProt P08183); test: Inhibition of MDR1-mediated efflux-pump activity in mouse L5178Y cells expressing human MDR1 assessed as forward scattered light at 20 uM preincubated for 10 mins followed by rhodamine-123 addition measured after 20 mins by flow cytometry (reference value: 455.7 to 509.9); assay type: cell-based
[2] = target: T1, ATP-dependent translocase ABCB1; test: Inhibition of MDR1-mediated efflux-pump activity in mouse L5178Y cells expressing human MDR1 assessed as mean fluorescence intensity at 20 uM preincubated for 10 mins followed by rhodamine-123 addition measured after 20 mins by flow cytometry (reference value: 7.1 to 18.6); assay type: cell-based
[3] = Antiproliferative activity against mouse L5178Y cells measured after 72 hrs by MTT assay; assay type: functional, cell-based
[4] = target: T1, ATP-dependent translocase ABCB1; test: Inhibition of MDR1-mediated efflux-pump activity in mouse L5178Y cells expressing human MDR1 assessed as side scattered light at 20 uM preincubated for 10 mins followed by rhodamine-123 addition measured after 20 mins by flow cytometry (reference value: 194.6 to 286.4); assay type: cell-based
[5] = Antiproliferative activity against mouse L5178Y cells expressing human MDR1 measured after 72 hrs by MTT assay; assay type: functional, cell-based
[6] = target: T1, ATP-dependent translocase ABCB1; test: Inhibition of MDR1-mediated efflux-pump activity in mouse L5178Y cells expressing human MDR1 assessed as fluorescence activity ratio at 2 uM preincubated for 10 mins followed by rhodamine-123 addition measured after 20 mins by flow cytometry; assay type: cell-based
[7] = target: T1, ATP-dependent translocase ABCB1; test: Inhibition of MDR1-mediated efflux-pump activity in mouse L5178Y cells expressing human MDR1 assessed as side scattered light at 2 uM preincubated for 10 mins followed by rhodamine-123 addition measured after 20 mins by flow cytometry (reference value: 194.6 to 286.4); assay type: cell-based
[8] = target: T1, ATP-dependent translocase ABCB1; test: Inhibition of MDR1-mediated efflux-pump activity in mouse L5178Y cells expressing human MDR1 assessed as fluorescence activity ratio at 20 uM preincubated for 10 mins followed by rhodamine-123 addition measured after 20 mins by flow cytometry; assay type: cell-based
[9] = target: T1, ATP-dependent translocase ABCB1; test: Inhibition of MDR1-mediated efflux-pump activity in mouse L5178Y cells expressing human MDR1 assessed as forward scattered light at 2 uM preincubated for 10 mins followed by rhodamine-123 addition measured after 20 mins by flow cytometry (reference value: 455.7 to 509.9); assay type: cell-based
[10] = target: T1, ATP-dependent translocase ABCB1; test: Inhibition of MDR1 in mouse L5178Y cells expressing human MDR1 assessed as doxorubicin-induced antiproliferative activity by measuring combination index at 1.4:1 compound to doxorubicin ratio measured after 48 hrs by MTT assay; assay type: cell-based
[11] = target: T1, ATP-dependent translocase ABCB1; test: Inhibition of MDR1-mediated efflux-pump activity in mouse L5178Y cells expressing human MDR1 assessed as mean fluorescence intensity at 2 uM preincubated for 10 mins followed by rhodamine-123 addition measured after 20 mins by flow cytometry (reference value: 7.1 to 18.6); assay type: cell-based
[12] = target: T1, ATP-dependent translocase ABCB1; test: Inhibition of MDR1 in mouse L5178Y cells expressing human MDR1 assessed as doxorubicin-induced antiproliferative activity by measuring combination index at 5.7:1 compound to doxorubicin ratio measured after 48 hrs by MTT assay; assay type: cell-based
[13] = target: T1, ATP-dependent translocase ABCB1; test: Inhibition of MDR1 in mouse L5178Y cells expressing human MDR1 assessed as doxorubicin-induced antiproliferative activity by measuring combination index at 11.3:1 compound to doxorubicin ratio measured after 48 hrs by MTT assay; assay type: cell-based

T1 sequence (P08183 whole entry): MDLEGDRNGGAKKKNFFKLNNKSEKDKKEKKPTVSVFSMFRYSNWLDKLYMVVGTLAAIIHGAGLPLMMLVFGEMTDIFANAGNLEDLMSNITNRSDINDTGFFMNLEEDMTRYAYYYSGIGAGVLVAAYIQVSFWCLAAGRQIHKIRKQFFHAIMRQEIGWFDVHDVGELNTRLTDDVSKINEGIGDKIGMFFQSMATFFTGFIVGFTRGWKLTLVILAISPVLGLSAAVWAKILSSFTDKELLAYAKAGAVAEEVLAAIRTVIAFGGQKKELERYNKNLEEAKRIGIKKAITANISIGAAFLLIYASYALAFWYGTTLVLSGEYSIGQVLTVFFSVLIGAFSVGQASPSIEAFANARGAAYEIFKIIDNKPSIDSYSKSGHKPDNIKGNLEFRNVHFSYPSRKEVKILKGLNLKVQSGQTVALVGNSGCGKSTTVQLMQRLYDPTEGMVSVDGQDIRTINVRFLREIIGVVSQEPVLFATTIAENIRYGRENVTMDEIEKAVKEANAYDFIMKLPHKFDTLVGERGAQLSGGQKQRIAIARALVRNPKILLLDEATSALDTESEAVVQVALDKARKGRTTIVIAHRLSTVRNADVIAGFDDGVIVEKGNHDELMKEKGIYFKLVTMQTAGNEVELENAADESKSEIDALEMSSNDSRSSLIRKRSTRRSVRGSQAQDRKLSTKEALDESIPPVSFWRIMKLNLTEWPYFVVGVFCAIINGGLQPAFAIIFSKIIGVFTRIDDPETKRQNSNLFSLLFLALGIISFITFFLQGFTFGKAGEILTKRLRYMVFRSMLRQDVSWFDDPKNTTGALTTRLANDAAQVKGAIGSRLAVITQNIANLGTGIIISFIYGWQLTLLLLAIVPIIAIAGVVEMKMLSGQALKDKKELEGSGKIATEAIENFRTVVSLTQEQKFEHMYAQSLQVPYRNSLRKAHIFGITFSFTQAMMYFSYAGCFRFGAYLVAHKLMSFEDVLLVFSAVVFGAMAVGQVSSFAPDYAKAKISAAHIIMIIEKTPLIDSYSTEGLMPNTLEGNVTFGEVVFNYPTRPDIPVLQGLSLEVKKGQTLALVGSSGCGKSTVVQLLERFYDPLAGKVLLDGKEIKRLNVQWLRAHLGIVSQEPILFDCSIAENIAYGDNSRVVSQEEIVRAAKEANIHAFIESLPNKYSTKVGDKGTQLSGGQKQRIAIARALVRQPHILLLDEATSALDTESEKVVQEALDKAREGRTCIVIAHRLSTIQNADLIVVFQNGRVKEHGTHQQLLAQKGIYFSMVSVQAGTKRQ

| SMILES | Activity [1] | Flu intensity [2] | IC50 [3] | Activity [4] | IC50 [5] | Ratio [6] | Activity [7] | Ratio [8] | Activity [9] | CI [10] | Flu intensity [11] | CI [12] | CI [13] |
| --- | --- | --- | --- | --- | --- | --- | --- | --- | --- | --- | --- | --- | --- |
| CO[C@H]1C=C2[C@@H](CC[C@H](O)C2(C)C)[C@]2(C)C[C@@H](O)[C@]3(C)[C@@H]([C@H](C)C/C=C/C(C)(C)O)CC[C@@]3(C)[C@H]12 | 585 | 391.6 | 44.4 µM | 235.8 | 46.3 µM | 2.7 | 249.6 | 38.2 | 568.6 | 0.393 | 27.2 |  |  |
| CO[C@H]1C=C2[C@@H](CC[C@H](O)C2(C)C)[C@]2(C)CC[C@]3(C)[C@@H]([C@H](C)C[C@H](C=C(C)C)O[C@@H]4O[C@H](CO)[C@@H](O)[C@H](O)[C@H]4O)CC[C@@]3(C)[C@H]12 | 457.3 | 643.1 | 3.5 µM | 269.2 | 32.8 µM | 1 | 266.8 | 49.1 | 446.8 |  | 12.4 | 0.956 |  |
| C[C@H](C/C=C/C(C)(C)O)[C@H]1CC[C@@]2(C)[C@@H]3[C@@H](O)C=C4[C@@H](CC[C@H](O)C4(C)C)[C@]3(C)CC[C@]12C | 395.2 | 368.4 | 18.7 µM | 243.9 | 27.4 µM | 7.1 | 249 | 36 | 570.5 |  | 73.1 | 0.71 |  |
| CC(C)=C[C@H](O)C[C@@H](C)[C@H]1CC[C@@]2(C)[C@@H]3[C@@H](O)C=C4[C@@H](CC[C@H](O)[C@]4(C)CO)[C@]3(C)CC[C@]12C [BALSAMINOL A] | 454.5 | 766.1 | 7.2 µM | 260 | 12.6 µM | 1.5 | 259 | 47.6 | 432.9 |  | 20.1 |  | 0.503 |
| CO[C@H]1C=C2[C@@H](CC[C@H](O)[C@]2(C)CO)[C@]2(C)CC[C@]3(C)[C@@H]([C@H](C)C[C@@H](O)C=C(C)C)CC[C@@]3(C)[C@H]12 [BALSAMINOL B] | 461.8 | 899.1 | 7.7 µM | 260.7 | 31 µM | 7.3 | 258.8 | 68.7 | 439.5 | 0.378 | 95.7 |  |  |
| CC(C)=CC(=O)C[C@@H](C)[C@H]1CC[C@@]2(C)[C@@H]3C(=O)C=C4[C@@H](CC[C@H](O)[C@]4(C)CO)[C@]3(C)CC[C@]12C [BALSAMINOL C] | 502.2 | 1537.8 | 19 µM | 195.7 | 42.6 µM | 2.9 | 205.4 | 198.9 | 502.3 |  | 22.3 | 0.268 |  |
| CC(C)=C[C@H](O)C[C@@H](C)[C@H]1CC[C@@]2(C)[C@@H]3C(=O)C=C4[C@@H](CC[C@H](O)C4(C)C)[C@]3(C)CC[C@]12C [BALSAMINOL E] | 593 | 663.1 | 41.3 µM | 234.5 | 55.2 µM | 2 | 243.4 | 64.8 | 582.7 |  | 20.8 | 0.721 |  |
| CO[C@H]1C=C2[C@@H](CC[C@H](O)C2(C)C)[C@]2(C)C[C@@H](O)[C@]3(C)[C@@H]([C@H](C)C[C@@H](O)C=C(C)C)CC[C@@]3(C)[C@H]12 [CUCURBALSAMINOL C] | 564.3 | 202.8 | 19.5 µM | 237.6 | 34.6 µM | 3.1 | 241.8 | 19.8 | 568.5 |  | 31.6 | 0.416 |  |
| CC(C)=C[C@H](O)C[C@@H](C)[C@H]1CC[C@@]2(C)[C@@H]3C=C[C@@]45OC[C@]3(CC[C@]12C)[C@@H]4CC[C@H](O)C5(C)C [KARAVILAGENIN E] | 474 | 743.8 | 21.3 µM | 242 | 45.2 µM | 3.8 | 234.2 | 72.6 | 568.8 |  | 38.4 | 0.437 |  |
| CO[C@H]1C=C2[C@@H](CC[C@H](O)C2(C)C)[C@]2(C)CC[C@]3(C)[C@@H]([C@H](C)C[C@H](C=C(C)C)OC(=O)/C=C/c4ccccc4)CC[C@@]3(C)[C@H]12 [KARAVOATE O] | 505.9 | 11 | > 133 µM | 206.9 | 90 µM | 1.3 | 197.9 | 1.4 | 496.9 |  | 10 |  |  |
| CO[C@H]1C=C2[C@@H](CC[C@H](OC(=O)/C=C/c3ccccc3)C2(C)C)[C@]2(C)CC[C@]3(C)[C@@H]([C@H](C)C[C@H](C=C(C)C)OC(=O)/C=C/c4ccccc4)CC[C@@]3(C)[C@H]12 [KARAVOATE P] | 503 | 18.1 | > 133 µM | 177 | > 133 µM | 1 | 191.2 | 2.7 | 528 |  | 6.9 |  |  |
| CC(=O)O[C@H]1C=C2[C@@H](CC[C@H](OC(C)=O)C2(C)C)[C@]2(C)CC[C@]3(C)[C@@H]([C@H](C)C[C@H](C=C(C)C)OC(C)=O)CC[C@@]3(C)[C@H]12 [TRIACETYLBALSAMINOL F] | 533.5 | 100.6 | > 133 µM | 179.9 | > 133 µM | 3 | 182.1 | 15 | 541.9 |  | 20 |  |  |
| CC(C)=C[C@@H](C[C@@H](C)[C@H]1CC[C@@]2(C)[C@@H]3[C@@H](OC(=O)c4ccccc4)C=C4[C@@H](CC[C@H](OC(=O)c5ccccc5)C4(C)C)[C@]3(C)CC[C@]12C)OC(=O)c1ccccc1 [TRIBENZOYLBALSAMINOL F] | 538.1 | 7.1 | 74.7 µM | 181.7 | 87.9 µM | 1.3 | 188.7 | 1.1 | 524.2 |  | 7.6 |  |  |
